According to US9603896B2, “Peptide compounds and methods of production and use thereof” (priority 2012, dated 2017):
Like-named read-outs stand apart in the source and are kept apart here. Square brackets hold non-standard residues; d marks the D form. Peptide text beside a SMILES is read from it. AEEA = NCCOCCOCC(=O)O

Columns and labels:
[1] = system: Pseudomonas aeruginosa ATCC® 27853™; format: cell-based; set-up: Log reduction of Pseudomonas: dose or concentration left out as unconfirmed; conditions: for Log reduction of Pseudomonas: starting inoculum 1×10^6 CFU/ml, 60 to 180 minute incubation; for Effects of Peptide Compounds on Pseudomonas aeruginosa ATCC ® 27853 ™: Table 6, 5 × 10^3 CFU/ml unless italicized = 1 × 10^5 CFU/ml
[2] = system: E. coli ATCC® strain 25922™; format: cell-based, Escherichia coli; set-up: Log reduction of E. coli: dose or concentration left out as unconfirmed; Effects of Peptide Compounds on Escherichia coli ATCC ® 25922 ™: unit not given here; conditions: for Log reduction of E. coli: 25, starting inoculum 1×10^6 CFU/ml, 60 to 180 minute incubation; for Effects of Peptide Compounds on Escherichia coli ATCC ® 25922 ™: Table 6, 5 × 10^3 CFU/ml unless italicized = 1 × 10^5 CFU/ml
Protocol: The three peptide compounds BCC01-5RMP (SEQ ID NO:21), BCC02-5RMP (SEQ ID NO:22), and BCC03-5RMP (SEQ ID NO:23) were assayed for in vitro bactericidal activity against Pseudomonas aeruginosa, Escherichia coli, Salmonella typhimurium, and Acinetobacter baumannii. […] The CFU remaining at the end of 60 to 180 minute incubation was determined, and the data plotted as a log reduction in CFU/ml.
Tables 4-6 show the results of various peptides and peptide compounds against P. aeruginosa and E. coli strains. Tables 4 and 5 show the results of an investigation of the effects of peptide or peptide compounds BCC03-5RMP (SEQ ID NO:23), BCC03-MP (SEQ ID NO:24) and BCC03-5R (SEQ ID NO:20) against P. aeruginosa ATCC® strain 27853™ and E. coli ATCC® strain 25922™ (American Type Culture Collection, Manassas, Va.). […] Table 6 compares the activity of several other compounds, including the “5R” versions of BCC01, i.e., SEQ ID NO:18 (which comprises SEQ ID NO:1 with five additional arginines), the “5R” version of BCC02 (i.e., SEQ ID NO:19, which comprises SEQ ID NO:2 with five additional arginines), and BCC03-5RMP (SEQ ID NO:23), and BCC03-MP (SEQ ID NO:24, i.e., without the five additional R residues). The data generally indicate the superiority of BCC03-5RMP (SEQ ID NO:23) against E. coli, and the superiority of the 5R or 5RMP versions of the peptide over the “AEEA only” peptide against P. aeruginosa.

[3] = LPS binding, Limulus Amebocyte Lysate (LAL) assay; set-up: species or system Pseudomonas
Protocol: (§1) The well-characterized response of RAW264.7 macrophage cells was used to produce tumor necrosis-factor-alpha (TNF-α) in response to LPS to determine whether the peptides could dampen the release of this cytokine. […] Importantly, pre-treatment (3 hours prior to LPS addition) as well as post-treatment of the RAW264.7 cells (3 hours post LPS addition) with peptide dampened the cytokine release. […] The finding that the novel peptides bind and neutralize the effect of Pseudomonas LPS is of critical importance since this ensures that the novel therapeutic peptide compounds described herein will not only kill the bacteria, but will also neutralize the LPS endotoxin released by the bacteria which plays such an important role in the rapid progression of sepsis.
(§2) BCC01-5RMP (SEQ ID NO:21), BCC02-5RMP (SEQ ID NO:22), and BCC03-5RMP (SEQ ID NO:23) were tested for their ability to bind lipopolysaccharide (LPS) using the limulus amebocyte lysate method (LAL). […] There was no statistical difference in their ability to bind LPS using the LAL technique. The ability of the peptides to neutralize LPS was assessed by determining their ability to attenuate the release of tumor necrosis factor-alpha (TNF-α) from LPS-stimulated RAW264.7 cells (a mouse macrophage cell line). […] No significant differences were observed between the three peptides to neutralize LPS as measured by cytokine release.

[4] = system: TNF-α release from LPS-stimulated RAW264.7 cells; experiment: LPS neutralization: TNF-α release from LPS-stimulated RAW264.7 cells; format: cell-based, mouse; conditions: Pseudomonas LPS
Protocol: as §1, §2

[5] = system: P. aeruginosa (ATCC® 27853™); experiment: Pseudomonas keratitis model in the mouse eye; format: in vivo; conditions: C57/BL mice, topical, concentrations between 0.25 and 0.75 mg/ml
Protocol: A circular wound was created on the mouse cornea by removing the epithelium and infected with 10^5 colony forming units (CFU) of P. aeruginosa (ATCC® 27853™ (American Type Culture Collection, Manassas, Va.)). Infected wounds were treated with saline (0.9% sodium chloride, vehicle control) or saline containing indicated concentrations of peptide every 15 minutes for 2 hours, then every 30 minutes for 3 hours on the first day. Infected wounds were treated twice on the second day and once on the third day. Mice were killed at 48 hours post-infection, and CFU/eye were quantified. The means were plotted and are representative of 5 to 9 mice per group. Mann Whitney test was performed for each group as compared to the saline control group. *P=0.014.
A circular wound (2 mm) was created on the mouse cornea by removing the epithelium and infecting the wound with 10^5 CFU of P. aeruginosa (ATCC® 27853™ (American Type Culture Collection, Manassas, Va.)). Infected wounds were treated with saline or saline containing indicated concentrations of peptide every 15 minutes for 2 hours, then every 30 minutes for 3 hours on the first day. Infected wounds were treated twice on the second day and once on the third day. Mice were killed at 48 hours post-infection, and the colony forming units per eye (CFU/eye) were quantified. The means are plotted and are representative of 5 to 9 mice per group. Mann Whitney test was performed for each group as compared to the saline control group.
For FIGS. 15-17, in vivo bactericidal activity of the peptides was also investigated using the standard Pseudomonas keratitis model in the mouse eye (FIGS. 15-17). Peptides 120-146QR-5RMP (SEQ ID NO:32), 120-146WH (SEQ ID NO:31), and 120-146WR (SEQ ID NO: 30) were applied topically at doses of 2, 5, 10, and 20 mg/ml to the wounded cornea that had been infected with 10^5 CFU of Pseudomonas aeruginosa. The efficacies of the peptides were compared to treatment with the vehicle control. Mice were euthanized at 48 hours post infection, and the CFU/eye were quantified.

[6] = system: Pseudomonas clinical isolate B64; experiment: BIOSCREEN C™ growth assay, antibiotic and peptide combinations; format: cell-based, Pseudomonas aeruginosa
Protocol: Cefotaxime (Cefo) and peptide combinations included a constant amount of Cefotaxime (2.81 μg/ml) with suboptimal amounts of peptide (0, 0.34, 1.01, and 3.04 μg/ml).
The peptide and antibiotics were set up in the wells of the microtiter plate at starting ratios of MIC equivalents of antibiotic:peptide at 3:1, 1:1, and 1:3. They were serially diluted to concentrations well below suboptimal/sublethal levels of the antibiotic and peptide. The organism was added (1×10^5 CFU/well), the BIOSCREEN C™ assay (Growth Systems USA, Piscataway, N.J.) was performed, and data was collected over 24 hours.

CC[C@H](C)[C@H](NC(=O)[C@H](CC(C)C)NC(=O)[C@H](C)NC(=O)CNC(=O)CNC(=O)[C@H](CS)NC(=O)[C@H](Cc1ccccc1)NC(=O)[C@H](Cc1c[nH]cn1)NC(=O)[C@H](CCCNC(=N)N)NC(=O)CNC(=O)[C@H](CCC(N)=O)NC(=O)[C@H](CC(N)=O)NC(=O)[C@H](CCCNC(=N)N)NC(=O)[C@H](CCCNC(=N)N)NC(=O)[C@H](CCCNC(=N)N)NC(=O)[C@H](CCCNC(=N)N)NC(=O)COCCOCCNC(=O)COCCOCCN)C(=O)N[C@@H](Cc1c[nH]cn1)C(=O)N[C@@H](C)C(=O)N[C@@H](CCCNC(=N)N)C(=O)N[C@@H](Cc1ccccc1)C(=O)N[C@H](C(=O)N[C@@H](CCSC)C(=O)N[C@H](C(=O)N[C@@H](C)C(=O)N[C@@H](C)C(=O)N[C@@H](CO)C(=O)N[C@@H](CS)C(=O)N[C@@H](Cc1ccccc1)C(=O)N[C@@H](CCC(N)=O)C(=O)N[C@@H](CCCNC(=N)N)C(=O)O)[C@@H](C)O)C(C)C [BCC01-5RMP] (H-[AEEA][AEEA]RRRRNQGRHFCGGALIHARFVMTAASCFQR-OH)
Log reduction of Pseudomonas [1]: 5 | Log reduction of E. coli [2]: 3 | binding of Pseudomonas LPS [3]: bound Pseudomonas LPS | neutralization of LPS: release of TNF-α [4]: attenuate the release of TNF-α

CC[C@H](C)[C@H](NC(=O)[C@H](CC(C)C)NC(=O)[C@H](C)NC(=O)CNC(=O)CNC(=O)[C@H](CO)NC(=O)[C@H](Cc1ccccc1)NC(=O)[C@H](Cc1c[nH]cn1)NC(=O)[C@H](CCCNC(=N)N)NC(=O)CNC(=O)[C@H](CCC(N)=O)NC(=O)[C@H](CC(N)=O)NC(=O)[C@H](CCCNC(=N)N)NC(=O)[C@H](CCCNC(=N)N)NC(=O)[C@H](CCCNC(=N)N)NC(=O)[C@H](CCCNC(=N)N)NC(=O)COCCOCCNC(=O)COCCOCCN)C(=O)N[C@@H](Cc1c[nH]cn1)C(=O)N[C@@H](C)C(=O)N[C@@H](CCCNC(=N)N)C(=O)N[C@@H](Cc1ccccc1)C(=O)N[C@H](C(=O)N[C@@H](CCSC)C(=O)N[C@H](C(=O)N[C@@H](C)C(=O)N[C@@H](C)C(=O)N[C@@H](CO)C(=O)N[C@@H](CS)C(=O)N[C@@H](Cc1ccccc1)C(=O)N[C@@H](CCC(N)=O)C(=O)N[C@@H](CCCNC(=N)N)C(=O)O)[C@@H](C)O)C(C)C [BCC02-5RMP] (H-[AEEA][AEEA]RRRRNQGRHFSGGALIHARFVMTAASCFQR-OH)
Log reduction of Pseudomonas [1]: 4 | Log reduction of E. coli [2]: 4 | binding of Pseudomonas LPS [3]: bound Pseudomonas LPS | neutralization of LPS: release of TNF-α [4]: attenuate the release of TNF-α | bacteria in the eye (CFU/eye) at 48 hours post-infection [5]: effectively killed all bacteria and cured the infection | sensitivity of the bacterium to Cefotaxime on addition of peptide ([6]; 3.04 μg/ml of peptide plus Cefotaxime 2.81 μg/ml, P=0.0143): now sensitive | effect of peptide on the killing effect of Cefotaxime ([6]; 0.34 and 1.0 μg/ml of peptide plus Cefotaxime 2.81 μg/ml): no statistical effect

CC[C@H](C)[C@H](NC(=O)[C@H](CC(C)C)NC(=O)[C@H](C)NC(=O)CNC(=O)CNC(=O)[C@H](CS)NC(=O)[C@H](Cc1ccccc1)NC(=O)[C@H](Cc1c[nH]cn1)NC(=O)[C@H](CCCNC(=N)N)NC(=O)CNC(=O)[C@H](CCC(N)=O)NC(=O)[C@H](CC(N)=O)NC(=O)[C@H](CCCNC(=N)N)NC(=O)[C@H](CCCNC(=N)N)NC(=O)[C@H](CCCNC(=N)N)NC(=O)[C@H](CCCNC(=N)N)NC(=O)COCCOCCNC(=O)COCCOCCN)C(=O)N[C@@H](Cc1c[nH]cn1)C(=O)N[C@@H](C)C(=O)N[C@@H](CCCNC(=N)N)C(=O)N[C@@H](Cc1ccccc1)C(=O)N[C@H](C(=O)N[C@@H](CCSC)C(=O)N[C@H](C(=O)N[C@@H](C)C(=O)N[C@@H](C)C(=O)N[C@@H](CO)C(=O)N[C@@H](CO)C(=O)N[C@@H](Cc1ccccc1)C(=O)N[C@@H](CCC(N)=O)C(=O)N[C@@H](CCCNC(=N)N)C(=O)O)[C@@H](C)O)C(C)C [BCC03-5RMP] (H-[AEEA][AEEA]RRRRNQGRHFCGGALIHARFVMTAASSFQR-OH; N-terminus assumed)
Effects of Peptide Compounds on Pseudomonas aeruginosa ATCC ® 27853 ™ ([1]; 0.78 μg/ml): 87.4 | Effects of Peptide Compounds on Pseudomonas aeruginosa ATCC ® 27853 ™ ([1]; 1.56 μg/ml): 96.6 | Effects of Peptide Compounds on Pseudomonas aeruginosa ATCC ® 27853 ™ ([1]; 3.125 μg/ml): 98.4 | Effects of Peptide Compounds on Pseudomonas aeruginosa ATCC ® 27853 ™ ([1]; 6.25 μg/ml): 99.8 | Effects of Peptide Compounds on Pseudomonas aeruginosa ATCC ® 27853 ™ ([1]; 12.5 μg/ml): 99.9 | Effects of Peptide Compounds on Pseudomonas aeruginosa ATCC ® 27853 ™ ([1]; 25 μg/ml): 100.0 | Effects of Peptide Compounds on Pseudomonas aeruginosa ATCC ® 27853 ™ ([1]; 50 μg/ml): 100.0 | Effects of Peptide Compounds on Pseudomonas aeruginosa ATCC ® 27853 ™ ([1]; 100 μg/ml): 100.0 | Effects of Peptide Compounds on Pseudomonas aeruginosa ATCC ® 27853 ™ ([1]; 200 μg/ml): 100.0 | Effects of Peptide Compounds on Escherichia coli ATCC ® 25922 ™ ([2]; 0.78 μg/ml): 12.3 | Effects of Peptide Compounds on Escherichia coli ATCC ® 25922 ™ ([2]; 1.56 μg/ml): 23.0 | Effects of Peptide Compounds on Escherichia coli ATCC ® 25922 ™ ([2]; 3.125 μg/ml): 32.8 | Effects of Peptide Compounds on Escherichia coli ATCC ® 25922 ™ ([2]; 6.25 μg/ml): 78.7 | Effects of Peptide Compounds on Escherichia coli ATCC ® 25922 ™ ([2]; 12.5 μg/ml): 99.3 | Effects of Peptide Compounds on Escherichia coli ATCC ® 25922 ™ ([2]; 25 μg/ml): 99.7 | Effects of Peptide Compounds on Escherichia coli ATCC ® 25922 ™ ([2]; 50 μg/ml): 99.9 | Effects of Peptide Compounds on Escherichia coli ATCC ® 25922 ™ ([2]; 100 μg/ml): 99.9 | Effects of Peptide Compounds on Escherichia coli ATCC ® 25922 ™ ([2]; 200 μg/ml): 99.9 | binding of Pseudomonas LPS [3]: bound Pseudomonas LPS | neutralization of LPS: release of TNF-α [4]: attenuate the release of TNF-α
